Test results: patent US20250295799A1, “ANTIBODY-DRUG CONJUGATES TARGETING GLYPICAN-3 AND METHODS OF USE” (Zymeworks BC Inc., priority 2022, published 2025)

Assays:
JHH-7 cells (GPC3-high) = experiment: On-cell binding by flow cytometry; details: flow cytometry
Procedure: (§1) Briefly, cells were seeded at 50,000 cells/well in V-bottom 96-well plates and treated with antibody for 24 hours at 4° C. to prevent internalization. […] Following incubation and washing, fluorescence was detected by flow cytometry on a BD LSRFortessa™ Cell Analyzer (BD Biosciences, Franklin Lake, NJ) with 1,000 minimum events collected per well. AF647/APC-A GeoMean (fluorescence signal geometric mean, proportional to anti-Human AF647 binding) in live cell population was plotted against antibody concentration using GraphPad Prism Version 9 (GraphPad Software, San Diego, CA). The Bmax, Curve Hill Slope (h) and Kd values were derived from the “Specific binding with Hill slope” nonlinear regression curve fit in GraphPad Prism Version 9.
(§2) The on-cell binding capabilities of light chain (LC)-modified M3-H18L6 antibody constructs were assessed on JHH-7 (hepatocellular carcinoma; GPC3-high) and JHH-5 (hepatocellular carcinoma; GPC3-mid) by flow cytometry as described below. […] The assay was carried out as described in Example 13.
(§3) Briefly, plasma stress was carried out by incubating M3-H18L6 LC-modified antibodies in mouse plasma (BioIVT, Westbury, NY; Cat. No. MSE00PL38NC-0103070) for 14 days in a 37° C./5% CO2 incubator. […] Following incubation and washing, fluorescence was detected by flow cytometry on a BD LSRFortessa™ Cell Analyzer (BD Biosciences, Franklin Lake, NJ) with 1,000 minimum events collected per well. AF647/APC-A GeoMean (fluorescence signal geometric mean, proportional to anti-Human AF647 binding) in live cell population was plotted against antibody concentration using GraphPad Prism Version 9 (GraphPad Software, San Diego, CA). […] Following incubation, cells were dissociated, washed, and surface AF488 fluorescence was quenched using an anti-AF488 antibody (Life Technologies, Carlsbad, CA; Cat. No. A-11094) at 100 nM for 30 minutes at 4° C. Quenched AF488 fluorescence (internalized fluorescence) was detected by flow cytometry on a BD LSRFortessa™ Cell Analyzer (BD Biosciences, Franklin Lake, NJ) with 1,000 minimum events collected per well.

JHH-5 cells (GPC3-mid) = experiment: On-cell binding by flow cytometry
Procedure: as §1, §2, §3

[1] = tested on: GFP-transfected CHO cells; experiment: Binding to transfected CHO-S cells by flow cytometry (negative transfection control)
Procedure: Briefly, CHO—S cells were transiently transfected for −24 hours with a pTT5-based expression plasmid encoding human GPC3 or cynomolgus monkey GPC3, 0.5 μg DNA per 1 million cells, using the Neon™ Transfection System (Thermo Fisher Scientific Corp., Waltham, MA), to transiently express human or cynomolgus monkey GPC3. Cells transfected with GFP were used as negative transfection controls. Following transfection, cells were seeded at 50,000 cells/well in V-bottom 96-well plates and treated with antibody for 24 hours at 4° C. to prevent internalization. […] Following incubation and washing, fluorescence was detected by flow cytometry on a BD LSRFortessa™ Cell Analyzer (BD Biosciences, Franklin Lake, NJ) with 1,000 minimum events collected per well. AF647/APC-A GeoMean (fluorescence signal geometric mean, proportional to anti-Human AF647 binding) in live cell population was plotted against antibody concentration using GraphPad Prism Version 9 (GraphPad Software, San Diego, CA). The Bmax and Kd values were derived from the “Specific binding with Hill slope” nonlinear regression curve fit in GraphPad Prism Version 9.

[2] = target: T1, human GPC3 on transfected CHO-S cells (Homo sapiens, UniProt P51654); experiment: Binding to transfected CHO-S cells by flow cytometry; details: 24 h at 4 °C
T1 construct: expressed in transfected cells; host or cells: CHO-S cells, transient transfection (Neon system)
Procedure: (§4) Following transfection, cells were seeded at 50,000 cells/well in V-bottom 96-well plates and treated with antibody for 24 hours at 4° C. to prevent internalization. […] Following incubation and washing, fluorescence was detected by flow cytometry on a BD LSRFortessa™ Cell Analyzer (BD Biosciences, Franklin Lake, NJ) with 1,000 minimum events collected per well.
as §4

[3] = tested on: JHH-5 cells (mid GPC3-expressing); experiment: Internalization by flow cytometry (quenched AF488); format: cell-based; details: 5 nM, 24 h
Procedure: Cells were seeded at 50,000 cells/well in 48-well plates and incubated overnight under standard culturing conditions (37° C./5% CO2) Gibco™ William's E Medium, GlutaMAX™ Supplement (Thermo Fisher Scientific, Waltham, MA; Cat. No. 32551020) with 10% FBS (Thermo Fisher Scientific, Waltham, MA; Cat. No. 12483020). Coupled antibodies were added to cells the following day at 5 nM and incubated under standard culturing conditions for 24 hours to allow for internalization. Following incubation, cells were dissociated, washed, and surface AF488 fluorescence was quenched using an anti-AF488 antibody (Life Technologies, Carlsbad, CA; Cat. No. A-11094) at 100 nM for 30 minutes at 4° C. Quenched AF488 fluorescence (internalized fluorescence) was detected by flow cytometry on a BD LSRFortessa™ Cell Analyzer (BD Biosciences, Franklin Lake, NJ) with 1,000 minimum events collected per well.
Briefly, plasma stress was carried out by incubating M3-H18L6 LC-modified antibodies in mouse plasma (BioIVT, Westbury, NY; Cat. No. MSE00PL38NC-0103070) for 14 days in a 37° C./5% CO2 incubator. […] Following incubation and washing, fluorescence was detected by flow cytometry on a BD LSRFortessa™ Cell Analyzer (BD Biosciences, Franklin Lake, NJ) with 1,000 minimum events collected per well. […]

palivizumab
binding to JHH-7 cells, in words (JHH-7 cells (GPC3-high)): did not exhibit any binding
binding to JHH-5 cells, in words (JHH-5 cells (GPC3-mid)): did not exhibit any binding
binding to GFP-transfected CHO cells, in words [1]: did not exhibit any binding
binding to CHO-S cells expressing human GPC3, in words [2]: did not exhibit any binding
internalization, in words [3]: minimal internalization
